Literature values, collected in patent publication US7745108B2, “Method for identifying terpene synthase” (The Regents of the University of California, priority 2003, dated 2010).

How the values were obtained:
monoterpene synthases = conditions: all twelve monoterpene synthases tested
taxadiene synthase = molecular target: T1, taxadiene synthase (Taxus brevifolia, UniProt Q41594)
T1 sequence (Q41594 61-862 limits assumed): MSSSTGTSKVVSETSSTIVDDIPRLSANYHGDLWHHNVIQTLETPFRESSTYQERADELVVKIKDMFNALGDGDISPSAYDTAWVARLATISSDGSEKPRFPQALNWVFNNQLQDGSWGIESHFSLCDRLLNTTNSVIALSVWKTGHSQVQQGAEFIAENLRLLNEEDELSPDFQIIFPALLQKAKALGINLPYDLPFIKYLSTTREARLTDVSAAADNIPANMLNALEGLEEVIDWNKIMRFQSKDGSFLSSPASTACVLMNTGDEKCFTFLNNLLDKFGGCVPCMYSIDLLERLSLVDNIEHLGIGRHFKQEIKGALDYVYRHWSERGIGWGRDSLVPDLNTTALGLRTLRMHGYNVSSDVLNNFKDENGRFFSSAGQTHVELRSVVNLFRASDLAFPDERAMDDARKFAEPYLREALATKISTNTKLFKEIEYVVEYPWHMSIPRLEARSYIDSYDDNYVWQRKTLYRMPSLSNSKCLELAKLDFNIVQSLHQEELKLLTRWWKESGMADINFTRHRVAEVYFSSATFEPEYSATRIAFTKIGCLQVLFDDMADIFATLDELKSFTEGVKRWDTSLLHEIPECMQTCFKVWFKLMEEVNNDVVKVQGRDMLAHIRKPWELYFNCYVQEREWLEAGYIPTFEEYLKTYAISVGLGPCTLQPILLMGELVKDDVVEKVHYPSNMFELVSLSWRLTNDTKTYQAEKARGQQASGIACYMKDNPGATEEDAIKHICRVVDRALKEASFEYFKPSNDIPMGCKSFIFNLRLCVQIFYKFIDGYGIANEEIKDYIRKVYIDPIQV

| Substance | sensitivity of monoterpene synthases to the inhibitor (monoterpene synthases) | covalent modification and inhibition of taxadiene synthase (taxadiene synthase) |
| --- | --- | --- |
| cyclopropylidene geranyl diphosphate [CP-GPP] | sensitive | – |
| cyclopropylidene geranylgeranyl diphosphate [CP-GGPP] | – | unsuccessful in covalently modifying and inhibiting |
